Consider 18 molecules from patent US20060058366A1, “Jnk inhibitor” (KYOWA HAKKO KOGYO CO., LTD., priority 2002, published 2006).

A value given as a limit tells only on which side of the number the result lay.

Test [1] concerns PC12 cells. The experiment in a line: Apoptosis suppressive activity by removal of NGF in NGF-differentiated PC12 cells (MTT). The conditions noted are these: 3 μmol/L test compound; 24 hours without NGF; cells with NGF not removed = 100%, NGF removed = 0%. The format is cell-based. The protocol: PC12 cells prepared in 6.0×10^4/mL by Roswell Park Memorial Institute's Medium (RPMI) 1640 medium containing 10% of horse serum, 5% of bovine fetal serum and penicillin/streptomycin were disposed in a 24-well multidish (NulgeNunc International; No. 143982) coated with polyethyleneimine in an amount of 0.5 mL for each well. After the cells were adhered to the dish, the medium was removed, an RPMI 1640 medium containing […] of 1% horse serum, penicillin/streptomycin and 50 ng/mL of mouse nerve growth factor (NGF) was added and the cells were incubated in a carbon dioxide gas incubator at 37° C. for 9 to 12 days, causing the cells to differentiate into a nerve cell form. A dilution series of DMSO solution of the test compound was prepared, and diluted with a medium containing 1% horse serum and penicillin/streptomycin and containing no NGF (final DMSO concentration: 0.1%). The medium was removed, washing was conducted twice using a medium containing 0.5 mL of the test compound, 1% horse serum, and penicillin/streptomycin, and containing no NGF, 0.5 mL of the above-medium was added once again to each well and then incubation was conducted in a carbon dioxide gas incubator at 37° C. for 24 hours. The medium was removed, 0.2 mL of a medium containing 1% horse serum, penicillin/streptomycin, NGF and 1 mg/mL 3-(4,5-dimethyl-2-thiazolyl)-2,5-diphenyl-2H-tetrazolium bromide (MTT) containing no test compound, was added to each well and incubation was conducted in a carbon dioxide gas incubator at 37° C. for 4 hours. DMSO (0.6 mL) was added to each well and 0.2 mL thereof was transferred to a 96-well multititer plate (Nulge Nunc International; No. 167008) and absorbances at 590 nm and 630 nm were measured using a microplate reader EL 3401 (Bio-Tek). The absorbance differential was calculated by subtracting the […] for each well. The apoptosis suppressive activity (%) of test compound were calculated by comparing the absorbance differential obtained from cells treated with test compound of known concentration with the value in the cells from which no NGF was removed and the value in the cells from which NGF was removed. Here, the value in the cells from which no NGF was removed was set at 100% while the value in the cells from which NGF was removed was set at 0%.

The target of test [2] is T1, mouse JNK 3 (Mus musculus, UniProt Q61831).
T1 construct: made in house; host or cells: COS-7 cells (crude extract)
T1 sequence (Q61831 whole entry): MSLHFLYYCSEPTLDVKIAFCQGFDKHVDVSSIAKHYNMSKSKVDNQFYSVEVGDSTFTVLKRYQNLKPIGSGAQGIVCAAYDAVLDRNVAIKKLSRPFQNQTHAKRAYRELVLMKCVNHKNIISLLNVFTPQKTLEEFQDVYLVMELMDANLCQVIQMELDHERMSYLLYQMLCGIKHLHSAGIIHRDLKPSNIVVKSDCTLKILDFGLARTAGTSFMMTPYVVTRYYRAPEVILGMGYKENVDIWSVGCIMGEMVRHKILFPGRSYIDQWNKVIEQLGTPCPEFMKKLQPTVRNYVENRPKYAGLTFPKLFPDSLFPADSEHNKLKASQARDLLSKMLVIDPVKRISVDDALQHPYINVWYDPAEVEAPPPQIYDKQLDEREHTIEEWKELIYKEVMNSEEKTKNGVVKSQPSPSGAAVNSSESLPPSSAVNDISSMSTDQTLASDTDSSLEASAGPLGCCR
The experiment in a line: JNK 3 inhibitory activity (33P incorporation into GST-JSAP1 fused protein). It counts as biochemical. Conditions: crude extract of COS-7 cells expressing mouse JNK 3; 3 μmol/L ATP; GST-JSAP1 substrate; 30° C., 15 minutes; read-out: JNK3 Inhibitory Activity (IC50/μM). As to the method: A crude extract of COS-7 cells in which mouse JNK 3 was expressed was used as the transcription enzyme solution. Glutathione-S-transferase (GST)-JSAP 1 (JNK/SAPK associated protein 1) fused protein was expressed in E. coli and its crude extract was subjected to an affinity purification using a column of Glutathione Sepharose 4B. An enzyme solution (3 μL), 50 μL of a reaction solution containing a test compound [in the reaction solution, (physiological saline)/(DMSO solution containing the test compound) (ratio by weight) was adjusted to 99/1], 50 μL of a substrate solution (final concentration: 3 μmol/L ATP), 0.75 μCi/ml[γ-^33P]-ATP and 66 μg/mL (1.5 μmol/L) of GST-JSAP1 fused protein reaction solution were incubated at 30° C. for 15 minutes. The reaction was stopped by addition of ethanol whereupon the GST-JSAP1 fused protein was precipitated. The precipitated protein was filtered using a Filter Mate Harvester (Packard Instruments) and adsorbed to a Unifilter Plate GF/B. Incorporation of radiation activity from [γ-^33P1-ATP to the GST-JSAP1 fused protein was measured using TopCount-HTS (Packard Instruments) to calculate enzyme inhibition activity. The enzyme inhibitory activity was calculated by a Probit (L) method using a statistic analysis software SAS (Release 6.12; SAS Institute, Inc.) as the 50% enzyme activity inhibiting concentration (IC50).

As to `CN(C)CCOc1ccc(/C=C/c2n[nH]c3ccccc23)cc1` [Compound 1], the “Apoptosis Suppressive Activity in 3 μmol/L of Test Compound (%)” value (shortened to “Apoptosis Suppressive Activity … (%)”) in test [1] is reported as 63%. The IC50 in test [2] was less than 0.5 µM.
As to `C(=C\c1n[nH]c2ccccc12)/c1cccnc1` [Compound 2, (E)-3-[2-(3-Pyridyl)vinyl]-1H-indazole], the “Apoptosis Suppressive Activity … (%)” value in test [1] was 44%. In test [2], the IC50 is less than 0.5 µM.
As to `O=C(Nc1ccc2[nH]nc(/C=C/c3cccnc3)c2c1)c1ccccc1` [Compound 4, (E)-5-Benzamido-3-[2-(3-pyridyl)vinyl]-1H-indazole], the “Apoptosis Suppressive Activity … (%)” value in test [1] is recorded as 64%.
Regarding `O=C(Cc1c[nH]c2ccccc12)Nc1ccc2[nH]nc(/C=C/c3cccnc3)c2c1` [Compound 6, (E)-5-(3-Indolyl)acetamide-3-[2-(3-pyridyl)vinyl]-1H-indazole], the IC50 in test [2] was less than 0.5 µM.
Turning to `O=C(CCS(=O)(=O)c1ccccc1)Nc1ccc2[nH]nc(/C=C/c3cccnc3)c2c1` [Compound 7, (E)-5-[3-(Phenylsulfonyl)propaneamido]-3-[2-(3-pyridyl)vinyl]-1H-indazole], the IC50 in test [2] is 1.2 µM.
For the molecule `O=C(Nc1ccc2[nH]nc(/C=C/c3cccnc3)c2c1)c1cnccn1` [Compound 9, (E)-5-(Pyrazinecarboxamido)-3-[2-(3-pyridyl)vinyl]-1H-indazole], in test [2], the IC50 stood at 0.55 µM.
Same read-out and setting: the figure for `O=C(Nc1ccc2[nH]nc(/C=C/c3cccnc3)c2c1)c1ccncc1` [Compound 11, (E)-5-(4-Pyridinecarboxamido)-3-[2-(3-pyridyl)vinyl]-1H-indazole] is less than 0.5 µM; for `O=C(O)c1ccc(C(=O)Nc2ccc3[nH]nc(/C=C/c4cccnc4)c3c2)cc1` [Compound 12, (E)-5-(4-Carboxybenzamido)-3-[2-(3-pyridyl)vinyl]-1H-indazole] it is less than 0.5 µM.
For `COC(=O)/C=C/c1ccc2[nH]nc(/C=C/c3cccnc3)c2c1` [Compound 14, (E)-5-(2-Methoxycarbonylvinyl)-(E)-3-[2-(3-pyridyl)vinyl]-1H-indazole], the “Apoptosis Suppressive Activity … (%)” value in test [1] is 62%. Moreover, the IC50 in test [2] is less than 0.5 µM.
On to `O=C(O)/C=C/c1ccc2[nH]nc(/C=C/c3cccnc3)c2c1` [Compound 15, (E)-5-(2-Carbonxyvinyl)-(E)-3-[2-(3-pyridyl)vinyl]-1H-indazole], for which the IC50 in test [2] is less than 0.5 µM.
On the same count and under the same terms, the value for `O=C(O)c1ccc(/C=C/c2ccc3[nH]nc(/C=C/c4cccnc4)c3c2)cc1` [Compound 17, (E)-5-[2-(4-Carboxyphenyl)vinyl]-(E)-3-[2-(3-pyridyl)vinyl]-1H-indazole] was less than 0.5 µM; that for `OCC#Cc1ccc2[nH]nc(/C=C/c3cccnc3)c2c1` [Compound 18, (E)-5-(3-hydroxy-1-propyn-1-yl)-3-[2-(3-pyridyl)vinyl]-1H-indazole] was less than 0.5 µM; that for `O=C(O)c1ccc2[nH]nc(/C=C/c3cccnc3)c2c1` [Compound 19, (E)-3-[2-(3-Pyridyl)vinyl]-1H-indazole-5-carboxylic acid] was less than 0.5 µM.
On the same count and under the same terms, the value for `OCC=Cc1ccc2[nH]nc(/C=C/c3cccnc3)c2c1` [Compound 21, (E)-5-(3-Hydroxy-1-propen-1-yl)-3-[2-(3-pyridyl)vinyl]-1H-indazole] was less than 0.5 µM; that for `O=C(O)c1ccc(C(=O)Nc2ccc3[nH]nc(/C=C/c4cnccc4NC(=O)c4ccccc4)c3c2)cc1` [Compound 24, (E)-3-[2-(4-Benzamidopyridin-3-yl)vinyl]-5-(4-carboxybenzamido)-1H-indazole] was less than 0.5 µM.
On the same count and under the same terms, the value for `O=C(Nc1ccccc1/C=C/c1n[nH]c2ccc(/C=C/CO)cc12)c1ccccc1` [Compound 25, (E)-3-[2-(2-Benzoylaminophenyl)vinyl]-(E)-5-(3-hydroxy-1-propen-1-yl)-1H-indazole] was less than 0.5 µM; that for `O=C(Nc1ccccc1/C=C/c1n[nH]c2ccc(C#CCO)cc12)c1ccccc1` [Compound 26, (E)-3-[2-(2-Benezoylaminophenyl)vinyl]-5-(3-hydroxy-1-propyn-1-yl)-1H-indazole] was less than 0.5 µM; that for “(E)-3-[2-(Benzamidopyridin-3-yl)vinyl]-(E)-5-(2-carboxyvinyl)-1H-indazole [Compound 23]” was less than 0.5 µM.
